Assay results reported in US8975398B2, “NAMPT inhibitors” (AbbVie Inc., priority 2012, dated 2015).

What was measured:
[1] = target: NAMPT (human, recombinant, C-terminally His-tagged) (Homo sapiens, UniProt P43490); test: Time-Resolved Fluorescence Resonance Energy Transfer (TR-FRET) Binding Assay of NAMPT; conditions: 6.8 nM NAMPT, 200 nM probe, equilibrated 3 hours, absence of substrates
Procedure, shortened: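 Recombinant C-terminally His-tagged human NAMPT (6.8 nM) incubated 3 h at room temperature with 200 nM Oregon Green 488–labelled nicotinamide-competitive probe and 1 nM Tb-anti-His antibody in HEPES pH 7.5, 2% DMSO. TR-FRET ratio Em520/Em495 normalized to controls; IC50 from four-parameter logistic fit.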

[2] = target: NAMPT (Homo sapiens, UniProt P43490); test: Time-Resolved Fluorescence Resonance Energy Transfer (TR-FRET) Binding Assay of NAMPT with PRPP; conditions: 2 nM NAMPT, 2 nM probe, 200 uM PRPP and 2.5 mM ATP, equilibrated 16 hours
NAMPT, sequence (P43490 whole entry): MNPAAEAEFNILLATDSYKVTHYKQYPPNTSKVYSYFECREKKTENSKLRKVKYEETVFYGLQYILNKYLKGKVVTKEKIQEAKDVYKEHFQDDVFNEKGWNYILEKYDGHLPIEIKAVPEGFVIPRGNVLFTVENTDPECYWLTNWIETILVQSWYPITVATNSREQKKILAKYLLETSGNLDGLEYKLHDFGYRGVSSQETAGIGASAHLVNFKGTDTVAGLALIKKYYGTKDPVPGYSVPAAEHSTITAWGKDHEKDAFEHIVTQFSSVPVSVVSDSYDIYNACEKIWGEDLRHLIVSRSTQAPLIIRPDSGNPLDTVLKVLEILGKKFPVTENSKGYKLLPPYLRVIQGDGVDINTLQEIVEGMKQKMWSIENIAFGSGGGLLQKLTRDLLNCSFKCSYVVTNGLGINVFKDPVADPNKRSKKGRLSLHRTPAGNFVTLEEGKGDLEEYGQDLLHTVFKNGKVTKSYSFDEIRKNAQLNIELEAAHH
Procedure, shortened: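 Final mix: 2 nM NAMPT, 2 nM probe, 1 nM Tb-anti-His antibody, 200 uM PRPP, 2.5 mM ATP, 2% DMSO in 1× assay buffer. Equilibrated 16 hours before TR-FRET read, allowing possible enzymatic modification of compounds.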

NAMPT (human, recombinant, C-terminally His-tagged), sequence (P43490 whole entry): as above

| IC50 [1] [nM] | IC50 [2] [nM] | Compound |
| --- | --- | --- |
| 16.9 | 0.361 | CCCC(=O)N1CCC(c2ccc(NC(=O)C3CN(c4cccnc4)C3)cc2)CC1 [Example 134, N-[4-(1-butanoylpiperidin-4-yl)phenyl]-1-(pyridin-3-yl)azetidine-3-carboxamide] |
| 112 | 0.861 | COCCOCC(=O)N1CCC(Oc2ccc(NC(=O)C3CN(c4cccnc4)C3)cc2)CC1 [Example 48, N-[4-({1-[(2-methoxyethoxy)acetyl]piperidin-4-yl}oxy)phenyl]-1-(pyridin-3-yl)azetidine-3-carboxamide] |
| 228 | 1.41 | O=C(Nc1ccc(OC2CCN(C(=O)C3CCC(F)(F)CC3)CC2)cc1)C1CN(c2cccnn2)C1 [Example 216, N-[4-({1-[(4,4-difluorocyclohexyl)carbonyl]piperidin-4-yl}oxy)phenyl]-1-(pyridazin-3-yl)azetidine-3-carboxamide] |
| 149 | 86.2 | O=C(Nc1ccc(OC2CCN(C(=O)c3cccc(C(F)(F)F)c3)CC2)cc1)C1CN(c2ccnnc2)C1 [Example 285, 1-(pyridazin-4-yl)-N-[4-({1-[3-(trifluoromethyl)benzoyl]piperidin-4-yl}oxy)phenyl]azetidine-3-carboxamide] |
| 29.5 | 21.8 | CC[C@H](C)C(=O)N1CC(Oc2ccc(NC(=O)C3CN(c4ccnnc4)C3)cc2)C1 [Example 265, N-[4-({1-[(2S)-2-methylbutanoyl]azetidin-3-yl}oxy)phenyl]-1-(pyridazin-4-yl)azetidine-3-carboxamide] |
| 424 | 24 | Cc1ncccc1N1CC(C(=O)Nc2ccc(OC3CCN(C(=O)CC4CCOCC4)CC3)cc2)C1 [Example 4, 1-(2-methylpyridin-3-yl)-N-(4-{[1-(tetrahydro-2H-pyran-4-ylacetyl)piperidin-4-yl]oxy}phenyl)azetidine-3-carboxamide] |
| 77.1 | 0.632 | Cc1cnc(C(=O)N2CCC(c3ccc(NC(=O)C4CN(c5cccnn5)C4)cc3)CC2)cn1 [Example 378, N-(4-{1-[(5-methylpyrazin-2-yl)carbonyl]piperidin-4-yl}phenyl)-1-(pyridazin-3-yl)azetidine-3-carboxamide] |
| 6.72 | 0.679 | O=C(Nc1ccc(C2CCN(C(=O)c3ccoc3)CC2)cc1)C1CN(c2cccnn2)C1 [Example 375, N-{4-[1-(furan-3-ylcarbonyl)piperidin-4-yl]phenyl}-1-(pyridazin-3-yl)azetidine-3-carboxamide] |
| 55.1 | 1.24 | CC(=O)N[C@@H](CC(C)C)C(=O)N1CCC(c2ccc(NC(=O)C3CN(c4cccnn4)C3)cc2)CC1 [Example 385, N-{4-[1-(N-acetyl-L-leucyl)piperidin-4-yl]phenyl}-1-(pyridazin-3-yl)azetidine-3-carboxamide] |
| 2270 | 206 | Cc1ncccc1N1CC(C(=O)Nc2ccc(C3CCN(C(=O)CN4CCCC4)CC3)cc2)C1 [Example 166, 1-(2-methylpyridin-3-yl)-N-{4-[1-(pyrrolidin-1-ylacetyl)piperidin-4-yl]phenyl}azetidine-3-carboxamide] |
| 7380 | 0.507 | O=C(NC1CN(c2cccnc2)C1)c1ccc(OC2CCN(C(=O)CC3CCOCC3)CC2)cc1 [Example 21, N-[1-(pyridin-3-yl)azetidin-3-yl]-4-{[1-(tetrahydro-2H-pyran-4-ylacetyl)piperidin-4-yl]oxy}benzamide] |
| 50.9 | 0.631 | COCC(=O)N1CCC(c2ccc(NC(=O)C3CN(c4cccnn4)C3)cc2)CC1 [Example 333, N-{4-[1-(methoxyacetyl)piperidin-4-yl]phenyl}-1-(pyridazin-3-yl)azetidine-3-carboxamide] |
| 68.6 | 0.918 | O=C(Nc1ccc(OC2CCN(C(=O)CC3CCCC3)CC2)cc1)C1CN(c2cccnc2)C1 [Example 69, N-(4-{[1-(cyclopentylacetyl)piperidin-4-yl]oxy}phenyl)-1-(pyridin-3-yl)azetidine-3-carboxamide] |
| 134 | 0.639 | CC(C)C(=O)N1CCC(Oc2ccc(NC(=O)C3CN(c4cccnn4)C3)cc2)CC1 [Example 253, N-(4-{[1-(2-methylpropanoyl)piperidin-4-yl]oxy}phenyl)-1-(pyridazin-3-yl)azetidine-3-carboxamide] |
| 283 | 1.41 | O=C(Nc1ccc(OC2CCN(C(=O)c3ccc(OC(F)(F)F)cc3)CC2)cc1)C1CN(c2cccnn2)C1 [Example 235, 1-(pyridazin-3-yl)-N-[4-({1-[4-(trifluoromethoxy)benzoyl]piperidin-4-yl}oxy)phenyl]azetidine-3-carboxamide] |
| 3860 | 0.572 | CC(C)(C)OC(=O)N1CCC(c2ccc(C(=O)NC3CN(c4cccnn4)C3)cc2)CC1 [Example 314, tert-butyl 4-(4-{[1-(pyridazin-3-yl)azetidin-3-yl]carbamoyl}phenyl)piperidine-1-carboxylate] |

| IC50 [1] [nM] | IC50 [2] [nM] | Compound |
| --- | --- | --- |
| 37.4 | 0.988 | Cc1cc(C)cc(C(=O)N2CCC(c3ccc(NC(=O)C4CN(c5cccnn5)C4)cc3)CC2)c1 [Example 361, N-{4-[1-(3,5-dimethylbenzoyl)piperidin-4-yl]phenyl}-1-(pyridazin-3-yl)azetidine-3-carboxamide] |
| 180 | 1.07 | COCC(=O)N1CCC(Oc2ccc(NC(=O)C3CN(c4cccnc4)C3)cc2)CC1 [Example 57, N-(4-{[1-(methoxyacetyl)piperidin-4-yl]oxy}phenyl)-1-(pyridin-3-yl)azetidine-3-carboxamide] |
| 9.54 | 0.392 | COc1ccccc1C(=O)N1CCC(c2ccc(NC(=O)C3CN(c4cccnn4)C3)cc2)CC1 [Example 345, N-{4-[1-(2-methoxybenzoyl)piperidin-4-yl]phenyl}-1-(pyridazin-3-yl)azetidine-3-carboxamide] |
| 48.2 | 0.178 | CCOCCC(=O)N1CCC(c2ccc(NC(=O)C3CN(c4cccnc4)C3)cc2)CC1 [Example 115, N-{4-[1-(3-ethoxypropanoyl)piperidin-4-yl]phenyl}-1-(pyridin-3-yl)azetidine-3-carboxamide] |
| 11.6 | 0.294 | CC(=O)N[C@@H](CC(C)C)C(=O)N1CCC(c2ccc(NC(=O)C3CN(c4cccnc4)C3)cc2)CC1 [Example 120, N-{4-[1-(N-acetyl-L-leucyl)piperidin-4-yl]phenyl}-1-(pyridin-3-yl)azetidine-3-carboxamide] |
| 30.6 | 0.497 | O=C(Nc1ccc(C2CCN(C(=O)CC3C[C@@H]4CC[C@H]3C4)CC2)cc1)C1CN(c2cccnc2)C1 (stereo partly drawn) [Example 100, N-(4-{1-[(1S,4R)-bicyclo[2.2.1]hept-2-ylacetyl]piperidin-4-yl}phenyl)-1-(pyridin-3-yl)azetidine-3-carboxamide] |
| 43.9 | 0.991 | CCCC(=O)N1CCC(c2ccc(NC(=O)C3CN(c4cccnn4)C3)cc2)CC1 [Example 317, N-[4-(1-butanoylpiperidin-4-yl)phenyl]-1-(pyridazin-3-yl)azetidine-3-carboxamide] |
| 104 | 0.924 | CC(=O)N1CCC(c2ccc(NC(=O)C3CN(c4cccnn4)C3)cc2)CC1 [Example 316, N-[4-(1-acetylpiperidin-4-yl)phenyl]-1-(pyridazin-3-yl)azetidine-3-carboxamide] |
| 30.2 | 3.96 | O=C(Nc1ccc(C2CCN(C(=O)c3ccccc3)CC2)cc1)[C@H]1CCN(c2cccnn2)C1 [Example 311, (3S)—N-[4-(1-benzoylpiperidin-4-yl)phenyl]-1-(pyridazin-3-yl)pyrrolidine-3-carboxamide] |
| 1560 | 32.8 | O=C(Nc1ccc(C2CCN(C(=O)CC3CCCC3)CC2)cc1)[C@H]1CCN(c2ccnnc2)C1 [Example 142, (3S)—N-{4-[1-(cyclopentylacetyl)piperidin-4-yl]phenyl}-1-(pyridazin-4-yl)pyrrolidine-3-carboxamide] |
| 24.2 | 0.616 | CCCCCCC(=O)N1CCC(c2ccc(NC(=O)C3CN(c4cccnn4)C3)cc2)CC1 [Example 329, N-[4-(1-heptanoylpiperidin-4-yl)phenyl]-1-(pyridazin-3-yl)azetidine-3-carboxamide] |
| 33.7 | 67.9 | Cc1ncccc1N1CC(C(=O)Nc2ccc(C3CCN(C(=O)c4ccsc4)CC3)cc2)C1 [Example 169, 1-(2-methylpyridin-3-yl)-N-{4-[1-(thiophen-3-ylcarbonyl)piperidin-4-yl]phenyl}azetidine-3-carboxamide] |
| 83.9 | 0.247 | O=C1CC[C@@H](C(=O)N2CCC(c3ccc(NC(=O)C4CN(c5cccnc5)C4)cc3)CC2)N1 [Example 114, N-{4-[1-(5-oxo-L-prolyl)piperidin-4-yl]phenyl}-1-(pyridin-3-yl)azetidine-3-carboxamide] |
| 78.2 | 25.3 | O=C(Nc1ccc(OC2CCN(C(=O)CC3CC3)CC2)cc1)C1CN(c2ccnnc2)C1 [Example 293, N-(4-{[1-(cyclopropylacetyl)piperidin-4-yl]oxy}phenyl)-1-(pyridazin-4-yl)azetidine-3-carboxamide] |
| 150 | 1.01 | O=C(Nc1ccc(OC2CCN(C(=O)CN3CCOCC3)CC2)cc1)C1CN(c2cccnc2)C1 [Example 60, N-(4-{[1-(morpholin-4-ylacetyl)piperidin-4-yl]oxy}phenyl)-1-(pyridin-3-yl)azetidine-3-carboxamide] |
